Source: ChEMBL document CHEMBL4130539, “Novel ureidopropanamide based N-formyl peptide receptor 2 (FPR2) agonists with potential application for central nervous system disorders characterized by neuroinflammation” (Eur J Med Chem, 2017)

Columns and labels:
[1] = target: T1, N-formyl peptide receptor 2 (Homo sapiens) (UniProt P25090); test: Agonist activity at FPR2 in human neutrophils assessed as induction of calcium mobilization measured every 5 secs for 240 secs by Fluo-4-AM dye based fluorometric method relative to fMLF
T1 sequence (whole entry): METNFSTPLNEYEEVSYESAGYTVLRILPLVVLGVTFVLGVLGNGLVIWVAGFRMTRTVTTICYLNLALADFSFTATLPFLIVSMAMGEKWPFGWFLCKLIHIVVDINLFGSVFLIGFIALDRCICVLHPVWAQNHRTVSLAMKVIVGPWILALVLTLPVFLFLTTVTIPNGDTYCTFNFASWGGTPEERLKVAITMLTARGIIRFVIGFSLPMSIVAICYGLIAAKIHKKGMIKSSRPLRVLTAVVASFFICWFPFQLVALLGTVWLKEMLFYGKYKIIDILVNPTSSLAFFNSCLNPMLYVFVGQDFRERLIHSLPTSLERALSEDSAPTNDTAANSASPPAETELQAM

[2] = target: T1, N-formyl peptide receptor 2 (Homo sapiens); test: Agonist activity at human FPR2 expressed in human HL60 cells assessed as induction of calcium mobilization measured every 5 secs for 240 secs by Fluo-4-AM dye based fluorometric method relative to WKYMVM; format: functional, cell-based
[3] = target: T2, N-formyl peptide receptor 2 (Homo sapiens, UniProt P25090); test: Agonist activity at FPR2 in human neutrophils assessed as induction of calcium mobilization measured every 5 secs for 240 secs by Fluo-4-AM dye based fluorometric method; format: functional
T2 sequence (P25090 whole entry): T1 sequence (whole entry)

[4] = target: T3, fMet-Leu-Phe receptor (Homo sapiens, UniProt P21462); test: Agonist activity at human FPR1 expressed in human HL60 cells assessed as induction of calcium mobilization measured every 5 secs for 240 secs by Fluo-4-AM dye based fluorometric method; format: functional, cell-based
T3 sequence (P21462 whole entry): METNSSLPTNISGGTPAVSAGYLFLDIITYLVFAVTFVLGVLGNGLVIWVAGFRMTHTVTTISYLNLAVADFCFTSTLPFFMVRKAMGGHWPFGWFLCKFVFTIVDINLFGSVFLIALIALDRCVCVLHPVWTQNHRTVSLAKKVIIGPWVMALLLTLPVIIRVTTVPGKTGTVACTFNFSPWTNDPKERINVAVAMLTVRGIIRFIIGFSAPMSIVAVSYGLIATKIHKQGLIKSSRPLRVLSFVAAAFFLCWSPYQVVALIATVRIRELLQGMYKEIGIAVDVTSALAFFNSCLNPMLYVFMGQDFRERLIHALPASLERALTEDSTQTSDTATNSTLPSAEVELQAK

[5] = Metabolic stability in rat liver microsomes assessed as parent compound remaining at 10 uM preincubated for 10 mins followed by NADPH addition measured after 30 mins by liquid chromatographic method; format: ADME, microsome; details: 0.5 h
[6] = target: T2, N-formyl peptide receptor 2; test: Agonist activity at human FPR2 expressed in human HL60 cells assessed as induction of calcium mobilization measured every 5 secs for 240 secs by Fluo-4-AM dye based fluorometric method; format: functional, cell-based
[7] = target: T4, fMet-Leu-Phe receptor (Homo sapiens) (UniProt P21462); test: Agonist activity at human FPR1 expressed in human HL60 cells assessed as induction of calcium mobilization measured every 5 secs for 240 secs by Fluo-4-AM dye based fluorometric method relative to fMLF; format: functional, cell-based
T4 sequence (whole entry): T3 sequence (P21462 whole entry)

[8] = Half life in rat liver microsomes at 10 uM preincubated for 10 mins followed by NADPH addition by liquid chromatographic method; format: ADME, microsome
[9] = Intrinsic clearance in rat liver microsomes at 10 uM preincubated for 10 mins followed by NADPH addition by liquid chromatographic method; format: ADME, microsome

Row | Compound | Efficacy [1] | Efficacy [2] | EC50 ([3]; read-out: EC50) | EC50 ([4]; read-out: EC50) | Stability [5] | EC50 ([6]; read-out: EC50) | Efficacy [7] | EC50 [3] | EC50 [4] | t1/2 [8] | EC50 [6] | Microsomal intrinsic clearance (CLint) [9]
1 | COc1ccc(NC(=O)N[C@H](Cc2ccc(C#N)cc2)C(=O)NCC2(c3ccc(C)c(F)c3)CC2)cc1 |  |  |  |  | 10% |  |  | Not Active | Not Active |  | Not Active | 
2 | O=C(Nc1ccc(F)cc1)N[C@H](Cc1c[nH]c2ccccc12)C(=O)NCC1(c2ccccc2)CC1 |  |  |  |  |  |  |  | Not Active | Not Active |  | Not Active | 
3 | N#Cc1ccc(C[C@@H](NC(=O)Nc2ccc([N+](=O)[O-])cc2)C(=O)NCC2(c3ccccc3)CC2)cc1 | 150% | 90% | 4100 nM | 4700 nM | 38% | 1500 nM | 75% |  |  | 1.58 h |  | 7.29 µL/min/mg
4 | N#Cc1ccc(C[C@H](NC(=O)Nc2ccc(F)cc2)C(=O)NCC2(c3ccc(OC(F)(F)F)cc3)CC2)cc1 |  |  |  |  | 80% |  |  | Not Active | Not Active |  | Not Active | 
5 | N#Cc1ccc(C[C@@H](NC(=O)Nc2ccc(F)cc2)C(=O)NCC2(c3ccc(OC(F)(F)F)cc3)CC2)cc1 |  |  |  |  | 88% |  |  | Not Active | Not Active |  | Not Active | 
6 | N#Cc1ccc(C[C@@H](NC(=O)Nc2ccc(F)cc2)C(=O)NCC2(c3ccc(F)c(Cl)c3)CC2)cc1 | 95% | 90% | 1300 nM | 5400 nM | 20% | 300 nM | 55% |  |  | 0.783 h |  | 14.7 µL/min/mg
7 | O=C(Nc1ccccc1)N[C@@H](Cc1c[nH]c2ccccc12)C(=O)NCC1(c2ccccc2)CC1 |  |  | 1500 nM | 2400 nM | 5% | 6700 nM |  |  |  |  |  | 
8 | O=C(Nc1ccc(F)cc1)N[C@@H](Cc1c[nH]c2ccccc12)C(=O)NCC1(c2ccccc2)CC1 |  |  |  | 18800 nM | 4% | 2000 nM |  | Not Active |  |  |  | 
9 | COc1ccc(NC(=O)N[C@H](Cc2c[nH]c3ccccc23)C(=O)NCC2(c3ccccc3)CC2)cc1 |  |  |  |  | 4% | 6500 nM |  | Not Active | Not Active |  |  | 
10 | COc1ccc(NC(=O)N[C@H](Cc2ccc(C#N)cc2)C(=O)NCC2(c3ccc(F)c(Cl)c3)CC2)cc1 | 115% | 60% | 730 nM | 630 nM | 5% | 1800 nM | 100% |  |  |  |  | 
11 | O=C(Nc1ccccc1)N[C@H](Cc1c[nH]c2ccccc12)C(=O)NCC1(c2ccccc2)CC1 |  |  |  |  | 4% |  |  | Not Active | Not Active |  | Not Active | 
12 | O=C(Nc1ccc([N+](=O)[O-])cc1)N[C@@H](Cc1cccnc1)C(=O)NCC1(c2ccccc2)CC1 | 65% | 60% | 730 nM | 850 nM | 51% | 6400 nM | 125% |  |  | 1.83 h |  | 6.3 µL/min/mg

Results, then the molecule that gave them:

Row | Efficacy [1] | Efficacy [2] | EC50 ([3]; read-out: EC50) | EC50 ([4]; read-out: EC50) | Stability [5] | EC50 ([6]; read-out: EC50) | Efficacy [7] | EC50 [3] | EC50 [4] | t1/2 [8] | EC50 [6] | Microsomal intrinsic clearance (CLint) [9] | Compound
13 | 155% | 60% | 330 nM | 450 nM | 10% | 3400 nM | 115% |  |  |  |  |  | COc1ccc(NC(=O)N[C@@H](Cc2ccc(C#N)cc2)C(=O)NCC2(c3ccc(F)c(Cl)c3)CC2)cc1
14 |  |  | 1700 nM | 10300 nM | 8% | 16300 nM |  |  |  |  |  |  | COc1ccc(NC(=O)N[C@@H](Cc2ccc(C#N)cc2)C(=O)NCC2(c3ccc(C)c(F)c3)CC2)cc1
15 |  |  |  |  | 37% |  |  | Not Active | Not Active | 0.983 h | Not Active | 10.04 µL/min/mg | Cc1ccc(C2(CNC(=O)[C@@H](Cc3ccc(C#N)cc3)NC(=O)Nc3ccc(F)cc3)CC2)cc1F
16 |  |  | 1400 nM | 950 nM | 3% | 110 nM |  |  |  |  |  |  | COc1ccc(NC(=O)N[C@@H](Cc2c[nH]c3ccccc23)C(=O)NCC2(c3ccccc3)CC2)cc1
17 |  |  |  |  | 43% |  |  | Not Active | Not Active |  | Not Active |  | COc1ccc(NC(=O)N[C@H](Cc2ccc(C#N)cc2)C(=O)NCC2(c3ccc(OC(F)(F)F)cc3)CC2)cc1
18 |  |  |  |  | 15% |  |  |  |  |  |  |  | O=C(Nc1ccc([N+](=O)[O-])cc1)N[C@H](Cc1c[nH]c2ccccc12)C(=O)NCC1(c2ccccc2)CC1
19 |  |  | 1700 nM | 5900 nM | 39% | 3000 nM |  |  |  |  |  |  | Cc1ccc(C2(CNC(=O)[C@H](Cc3ccc(C#N)cc3)NC(=O)Nc3ccc(F)cc3)CC2)cc1F
20 |  |  |  |  | 51% |  |  | Not Active | Not Active |  | Not Active |  | COc1ccc(NC(=O)N[C@@H](Cc2ccc(C#N)cc2)C(=O)NCC2(c3ccc(OC(F)(F)F)cc3)CC2)cc1
